Reference: the NIST ThermoML archive (doi:10.1016/j.jct.2008.12.002)

Test: xn = mol fraction of the nth substance listed
Conditions: 101 kPa, Liquid, Vibrating tube method

CCCCCCCC[n+]1ccn(C)c1.F[B-](F)(F)F [1-methyl-3-octylimidazolium tetrafluoroborate] + OCCO
mass density [kg/m3]
Conditions	298.15 K	308.15 K	318.15 K
x1 = 0.0027	1109.9	1102.8	1095.7
x1 = 0.0046	1109.7	1102.7	1095.4
x1 = 0.0081	1109.5	1102.4	1095.2
x1 = 0.0151	1109	1101.9	1094.6
x1 = 0.0316	1108	1100.8	1093.4
x1 = 0.0614	1106.4	1099.2	1091.7
x1 = 0.083	1105.4	1098	1090.6
x1 = 0.1341	1103.5	1096	1088.6
x1 = 0.2026	1101.7	1094	1086.8
x1 = 0.273	1100.4	1092.7	1085.3
x1 = 0.4125	1099.2	1091.5	1084.2
x1 = 0.5198	1099	1091.3	1084.1
x1 = 0.6306	1099.3	1091.6	1084.5
x1 = 0.7919	1100.3	1092.6	1085.5
x1 = 0.9583	1101.6	1094	1087.1
x1 = 1	1101.9	1094.32	1087.5

CCCCCCCCOS(=O)(=O)[O-].CCCCn1cc[n+](C)c1 [1-butyl-3-methylimidazolium octyl sulfate] + OCCO
mass density [kg/m3]
Conditions	298.15 K	308.15 K	318.15 K
x1 = 0.0003	1109.9	1102.8	1095.5
x1 = 0.0008	1109.8	1102.6	1095.3
x1 = 0.0012	1109.6	1102.5	1095.2
x1 = 0.0017	1109.5	1102.4	1095.1
x1 = 0.002	1109.4	1102.3	1095
x1 = 0.0038	1108.8	1101.7	1094.4
x1 = 0.007	1107.8	1100.7	1093.4
x1 = 0.0119	1106.3	1099.2	1092
x1 = 0.0174	1104.7	1097.7	1090.5
x1 = 0.0258	1102.5	1095.5	1088.2
x1 = 0.0508	1096.8	1089.8	1082.6
x1 = 0.19	1079.9	1072.9	1065.9
x1 = 0.301	1074.2	1067.3	1060.4
x1 = 0.3712	1072.2	1065.3	1058.4
x1 = 0.4591	1070.5	1063.6	1056.8
x1 = 0.5435	1069.4	1062.7	1055.9
x1 = 0.6225	1068.7	1062.1	1055.4
x1 = 0.7366	1068.2	1061.5	1054.9
x1 = 0.8073	1067.9	1061.3	1054.8
x1 = 0.9007	1067.7	1061.2	1054.6
x1 = 1	1067.6	1061	1054.5

CCCCn1cc[n+](C)c1.F[B-](F)(F)F [1-butyl-3-methylimidazolium tetrafluoroborate] + OCCO
mass density [kg/m3]
Conditions	298.15 K	308.15 K	318.15 K
x1 = 0.0266	1116.7	1109.4	1102.2
x1 = 0.0766	1127.3	1119.9	1112.5
x1 = 0.1017	1131.9	1124.4	1116.9
x1 = 0.1678	1142.4	1134.7	1126.9
x1 = 0.2425	1152.1	1144.1	1136.2
x1 = 0.3825	1166	1157.8	1149.7
x1 = 0.4389	1170.5	1162.4	1154.3
x1 = 0.5207	1176.4	1168.3	1160.3
x1 = 0.6049	1181.7	1173.7	1165.8
x1 = 0.7196	1188.1	1180.4	1172.7
x1 = 0.8106	1192.7	1185.1	1177.6
x1 = 0.8978	1196.8	1189.4	1182.1
x1 = 1	1201.2	1194	1186.9
